Experimental findings from patent US6777193B1, “Methods for diagnostic and/or treatment of antiphospholipids antibodies-related diseases, and devices” (Escuela Nacional de Ciencias Biologicas, del Instituto …, priority 2000, dated 2004) are described below.

In one assay the test system is BALB/c female mice. The assay can be described thus: Treatment of the pathology induced by H308 monoclonal antibody in mice. Type of assay: in vivo, mouse. The protocol: H308 monoclonal antibody was administered by intraperitoneal injection of 1 μg each week during two months to BALB/c female mice, and simultaneously the glycerolphosphorylcholine hapten was administered at 2.5 mg/Kg, of body weight, doses by intravenous injection each 24 hs, for 2-months.
Spermidine was administered, as chlorhydrate, in a dose of 1 mg/Kg, of body weight, by intraperitoneal injection each 24 hs, during two months.

Assay [1] deals with anti-lipidic particles antibodies from sera of patients with the antiphospholipid syndrome. The assay can be described thus: Hapten inhibition of anti-lipidic particles antibodies from patients' sera (liposomal-ELISA). The settings on record: 0.2 μmoles hapten, 30 min at 30° C. Type of assay: binding, human. The protocol: Costar microtiter plates, with 96 flat-bottom wells with a high lipidic antigens binding property (Costar Co. Cambrige, USA) were coated by the addition to each one of the wells of 100 μl of liposomes made from egg-yolk phosphatidylcholine:phosphatidate (2:1 molar ratio) in Tris-NaCl buffer (10 mM, 1 mM) pH 7, containing 0.1 μmol of phosphatidate, and treated with 5 mM CaCl2 to induce lipidic particles formation.
Aliquots of 100 μl of patients' sera that were analyzed in Examples 1 and 2B were incubated with 100 μl of 0.2 μmoles of glycerolphosphorylcholine for 30 min at 30° C. Later on, blocked patients sera were added to the wells of the microtiter plate and the liposomal-ELISA method was applied as it was described in Example 1. Peroxidase-conjugated goat anti-Fc of human IgG, IgA and IgM antibodies were used as second antibody.
Background: An ELISA detects its analyte on a solid surface through an enzyme-linked reagent.

For another assay, the system named is H308 monoclonal antibody. The assay can be described thus: Inhibition of H308 monoclonal antibody by phosphorylated haptens (liposomal-ELISA). Format: binding, mouse. The conditions noted are these: 0.2 μmoles of hapten. The protocol: Studies on inhibition of anti-lipidic particles antibodies were carried out using liposomes as antigens and the antigen-antibody reaction was analyzed by the liposomal-ELISA method, which includes the following steps:
A) A first step of addition and incubation, in which an effective quantity of an antigen suspension is added to each one of the wells of the ELISA microtiter plate. This microtiter plate is selected among those with a high lipidic antigens binding property and said microtiter plate is incubated between 25 to 30° C. for 0.25 to 2 h.
B) A second step of addition and incubation, in which an effective quantity of a blocking solution is added to each one of the wells of the ELISA microtiter plate with a high lipidic antigens binding property, and said microtiter plate being incubated at a temperature between 25 to 30° C. for 0.25 to 2 h.
C) A step of elimination of blocking solution, preferably by suction, avoiding that microtiter plate becomes dry when blocking solution is eliminated, because liposomal antigens can be damaged.
D) A step of inhibition of the antibody porter, in which the antibody porter is incubated with a chemical substance, or hapten, that will inhibit the active site that recognizes the antigen in the antibody porter.
E) A third step of addition and incubation, in which an effective quantity of the antibody porter inhibited by the hapten was quickly added, to avoid that microtiter plate becomes dry, to each one of the wells using an antibody porter dilution from 1:5 to 1:1000 into blocking solution. This microtiter plate being incubated for 0.25 to 2 h at a temperature between 25 to 30° C.
F) A first step of washing, in which the microtiter plate is washed with the blocking solution, preferably repeating 4-times and avoiding that microtiter plate becomes dry when eliminating the blocking solution.
G) A fourth step of addition and incubation, in which an effective quantity of a second antibody is added to each one of the wells of microtiter plate. This plate is incubated in the darkness for 0.25 to 2 h at a temperature between 25 to 30° C. Second antibody is selected preferably among antibodies from a different specie to that of the antibody porter and they can be anti-Fc of human IgG, IgA and IgM or of the animal in study, or antibodies anti-Fc of IgM or of IgG depending on the nature of the monoclonal antibody when this is the antibody porter. Second antibody is used in a final dilution into blocking solution between […] and 1:3500 and it is conjugated to an enzyme preferably to peroxidase.
H) A second step of washing, in which the microtiter plate is washed with the blocking solution, preferably repeating 4-times and avoiding that microtiter plate becomes dry when eliminating the blocking solution.
I) A fifth step of addition and incubation, in which an effective quantity of the peroxidase sustrates is added to each one of the wells and this microtiter plate is incubated for 0.1 to 0.5 h at a temperature between .35 and 40° C., stopping the peroxidase reaction by adding an effective quantity of sulfuric acid.
J) A step of analysis, in which microtiter plate is analyzed using a reading device for ELISA plates, preferably at 492 nm.
In a specific embodiment, the hapten solution is obtained dissolving hapten in a buffer solution at pH between 7.0 and 7.4, in a relationship from 0.1 to 10 mmoles of hapten per liter of buffer solution.
Costar microtiter plates, with 96 flat-bottom wells with a high lipidic antigens binding property (Costar Co. Cambrige, USA) were coated by the addition to each one of the wells of 100 μl of liposomes made from egg-yolk phosphatidylcholine:phosphatidate (2:1 molar ratio) in Tris-NaCl buffer (10 mM, 1 mM) pH 7, containing 0.1 μmol of phosphatidate, and treated with 5 mM CaCl2 to induce lipidic particles formation. Microtiter plates were incubated at room temperature for 1 h and they were blocked for 1 h at room temperature in a similar way as was described in Example 1. […]

With `C[N+](C)(C)CCOP(=O)([O-])OC[C@H](O)CO` [glycerolphosphorylcholine], in the assay with BALB/c female mice (hapten 2.5 mg/Kg intravenous each 24 hs for 2-months, H308 1 μg i.p. each week), the “inhibition of the development of mice pathology by H308 monoclonal antibody” value is on record as 40%. The compound also gave a therapeutically effective quantity in the assay on BALB/c female mice (of body weight, BALB/c female mice given H308) of 2.5 mg/kg. For the same compound, in assay [1], the “inhibition in the immunoreaction of patients sera with lipidic particles in liposomes” value is reported as 100%. Moreover, the “inhibition of H308 monoclonal antibody” value in the assay with H308 monoclonal antibody came out at 100%.
